Laboratory results taken from patent publication US8828682B2, “Methods and articles for detecting hemolytic microorganisms” (priority 2008, dated 2014).
Like-named read-outs stand apart in the source and are kept apart here.

Key:
[1] = tested on: methicillin-resistant S. aureus (strain 565, clinical isolate); assay type: cell-based, Staphylococcus aureus; conditions: 35° C., 10% sheep blood in PBS
Method: (§1) Antibiotic stock solutions (3 mg/mL and 4 mg/mL) were individually prepared in DI water. The solutions were filter-sterilized. The antibiotics included cefoxitin, cefazolin, and cefuroxime. The antibiotics were diluted 1:1000 into PBS/sheep blood aliquots to achieve final antibiotic concentrations of 3 μg/mL and 4 μg/mL, respectively.
(§2) The bacterial suspensions were subjected to two serial 1:100 dilutions in sterile PBS. The diluted suspensions were then further subjected to a 1:100 dilution into each of the respective PBS/sheep blood mixtures containing an antibiotic. One milliliter of each final suspension; containing sheep blood, microorganisms, and an antibiotic in PBS; was into a PAC plate as described above. The plates were incubated at 35° C. for 48 hours. Each plate was checked for colony growth and hemolytic zone after 24 and 48 hours of incubation.

[2] = tested on: methicillin-resistant S. epidermidis (strain 497, clinical isolate); assay: Growth and hemolysis in PAC thin film culture plates with antibiotic in PBS/10% sheep blood diluent; assay type: cell-based, Staphylococcus epidermidis; conditions: 35° C., 10% sheep blood in PBS
Method: as §1, §2

CO[C@@]1(NC(=O)Cc2cccs2)C(=O)N2C(C(=O)O)=C(COC(N)=O)CS[C@@H]21 [Cefo, cefoxitin]
+/+: Growth ([1]; antibiotic 3 μg/mL, 24 hours) | Hemolysis ([1]; antibiotic 3 μg/mL, 24 hours) | Growth ([1]; antibiotic 3 μg/mL, 48 hours) | Hemolysis ([1]; antibiotic 3 μg/mL, 48 hours) | Growth ([1]; antibiotic 4 μg/mL, 24 hours) | Hemolysis ([1]; antibiotic 4 μg/mL, 24 hours) | Growth ([1]; antibiotic 4 μg/mL, 48 hours) | Hemolysis ([1]; antibiotic 4 μg/mL, 48 hours) | Growth ([2]; antibiotic 3 μg/mL, 24 hours) | Growth ([2]; antibiotic 3 μg/mL, 48 hours) | Growth ([2]; antibiotic 4 μg/mL, 24 hours) | Growth ([2]; antibiotic 4 μg/mL, 48 hours)

CO/N=C(\C(=O)N[C@@H]1C(=O)N2C(C(=O)O)=C(COC(N)=O)CS[C@H]12)c1ccco1 [Cefu, cefuroxime]
+/+: Growth ([1]; antibiotic 3 μg/mL, 24 hours) | Hemolysis ([1]; antibiotic 3 μg/mL, 24 hours) | Growth ([1]; antibiotic 3 μg/mL, 48 hours) | Hemolysis ([1]; antibiotic 3 μg/mL, 48 hours) | Growth ([1]; antibiotic 4 μg/mL, 24 hours) | Hemolysis ([1]; antibiotic 4 μg/mL, 24 hours) | Growth ([1]; antibiotic 4 μg/mL, 48 hours) | Hemolysis ([1]; antibiotic 4 μg/mL, 48 hours) | Growth ([2]; antibiotic 3 μg/mL, 24 hours) | Growth ([2]; antibiotic 3 μg/mL, 48 hours) | Growth ([2]; antibiotic 4 μg/mL, 24 hours) | Growth ([2]; antibiotic 4 μg/mL, 48 hours)
